According to paper PMC2812670 (Experimental neurology, 2009):

Target: T1, MAO-A (Mus musculus, UniProt Q64133)
T1 sequence (Q64133 1-526): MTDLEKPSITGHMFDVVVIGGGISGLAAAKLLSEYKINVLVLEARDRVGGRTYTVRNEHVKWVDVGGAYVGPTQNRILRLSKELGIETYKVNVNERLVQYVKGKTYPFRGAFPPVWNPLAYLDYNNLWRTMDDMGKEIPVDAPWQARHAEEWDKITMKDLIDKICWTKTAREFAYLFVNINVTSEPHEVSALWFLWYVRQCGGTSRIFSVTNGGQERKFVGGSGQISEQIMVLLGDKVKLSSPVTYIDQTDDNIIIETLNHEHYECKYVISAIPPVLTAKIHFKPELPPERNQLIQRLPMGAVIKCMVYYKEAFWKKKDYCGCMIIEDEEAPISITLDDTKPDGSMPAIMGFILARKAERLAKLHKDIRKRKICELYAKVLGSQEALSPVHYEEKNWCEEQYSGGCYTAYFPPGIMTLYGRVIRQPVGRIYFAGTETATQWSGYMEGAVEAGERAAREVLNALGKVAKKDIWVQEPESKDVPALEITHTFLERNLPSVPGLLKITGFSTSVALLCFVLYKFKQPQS
Assay: Amplex Red MAO-A activity assay
Format: biochemical

With `C#CCN(C)CCCOc1ccc(Cl)cc1Cl` [clorgyline] the “Amplex Red MAO-A activity assay (tyramine substrate) in mouse brain homogenates,” value was 1 µM.
